From ChEMBL document CHEMBL3991601, “The target landscape of clinical kinase drugs” (Science, 2017) come the findings set out here.

Structures are written as SMILES. Calls of active or inactive are those of the source.

The target in experiment [1] is Dual specificity protein kinase CLK4 (Homo sapiens, UniProt Q9HAZ1).
For experiment [2], the target named is Serine/threonine-protein kinase Nek7 (Homo sapiens, UniProt Q8TDX7).
Another experiment has as its target Myosin-10 (Homo sapiens, UniProt P35580).
The target of experiment [3] is Serine/threonine-protein kinase PAK 6 (Homo sapiens, UniProt Q9NQU5).
Experiment [4] addresses T1, ATP-dependent RNA helicase DHX30 (Homo sapiens, UniProt Q7L2E3).
T1 sequence (Q7L2E3 whole entry): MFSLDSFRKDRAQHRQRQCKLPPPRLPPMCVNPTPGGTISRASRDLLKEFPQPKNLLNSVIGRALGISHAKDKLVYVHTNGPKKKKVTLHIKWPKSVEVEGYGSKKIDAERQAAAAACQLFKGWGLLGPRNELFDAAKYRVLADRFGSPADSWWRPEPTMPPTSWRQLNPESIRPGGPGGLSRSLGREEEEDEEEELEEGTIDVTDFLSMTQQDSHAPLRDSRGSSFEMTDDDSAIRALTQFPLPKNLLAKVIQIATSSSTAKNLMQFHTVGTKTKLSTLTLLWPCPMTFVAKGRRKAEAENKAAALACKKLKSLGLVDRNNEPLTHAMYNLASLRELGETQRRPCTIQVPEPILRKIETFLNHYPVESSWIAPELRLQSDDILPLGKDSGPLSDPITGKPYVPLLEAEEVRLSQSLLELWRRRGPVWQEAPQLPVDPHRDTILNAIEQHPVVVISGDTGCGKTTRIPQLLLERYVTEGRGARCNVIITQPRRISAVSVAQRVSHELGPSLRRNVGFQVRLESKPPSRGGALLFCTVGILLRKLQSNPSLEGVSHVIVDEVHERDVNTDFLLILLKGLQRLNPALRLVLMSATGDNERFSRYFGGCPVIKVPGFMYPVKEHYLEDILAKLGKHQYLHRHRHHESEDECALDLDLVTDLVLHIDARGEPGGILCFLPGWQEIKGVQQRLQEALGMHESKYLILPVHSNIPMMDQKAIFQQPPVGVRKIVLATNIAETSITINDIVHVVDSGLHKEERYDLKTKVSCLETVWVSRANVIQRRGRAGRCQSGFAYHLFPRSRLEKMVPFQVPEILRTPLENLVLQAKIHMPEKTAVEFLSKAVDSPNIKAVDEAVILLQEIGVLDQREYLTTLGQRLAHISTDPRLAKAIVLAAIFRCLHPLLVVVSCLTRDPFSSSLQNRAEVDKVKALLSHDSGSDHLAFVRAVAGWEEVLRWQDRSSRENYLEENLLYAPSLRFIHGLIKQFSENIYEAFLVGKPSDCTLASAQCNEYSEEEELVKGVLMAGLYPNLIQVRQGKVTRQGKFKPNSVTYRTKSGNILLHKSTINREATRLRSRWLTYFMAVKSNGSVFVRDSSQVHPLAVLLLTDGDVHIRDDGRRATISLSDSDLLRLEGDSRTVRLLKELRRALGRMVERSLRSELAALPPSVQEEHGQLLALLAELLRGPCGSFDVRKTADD

Experiment [5] concerns the target Serine/threonine-protein kinase 24 (Homo sapiens, UniProt Q9Y6E0).
For experiment [6], the target named is T2, Dual specificity protein kinase TTK (Homo sapiens, UniProt P33981).
T2 sequence (P33981 whole entry): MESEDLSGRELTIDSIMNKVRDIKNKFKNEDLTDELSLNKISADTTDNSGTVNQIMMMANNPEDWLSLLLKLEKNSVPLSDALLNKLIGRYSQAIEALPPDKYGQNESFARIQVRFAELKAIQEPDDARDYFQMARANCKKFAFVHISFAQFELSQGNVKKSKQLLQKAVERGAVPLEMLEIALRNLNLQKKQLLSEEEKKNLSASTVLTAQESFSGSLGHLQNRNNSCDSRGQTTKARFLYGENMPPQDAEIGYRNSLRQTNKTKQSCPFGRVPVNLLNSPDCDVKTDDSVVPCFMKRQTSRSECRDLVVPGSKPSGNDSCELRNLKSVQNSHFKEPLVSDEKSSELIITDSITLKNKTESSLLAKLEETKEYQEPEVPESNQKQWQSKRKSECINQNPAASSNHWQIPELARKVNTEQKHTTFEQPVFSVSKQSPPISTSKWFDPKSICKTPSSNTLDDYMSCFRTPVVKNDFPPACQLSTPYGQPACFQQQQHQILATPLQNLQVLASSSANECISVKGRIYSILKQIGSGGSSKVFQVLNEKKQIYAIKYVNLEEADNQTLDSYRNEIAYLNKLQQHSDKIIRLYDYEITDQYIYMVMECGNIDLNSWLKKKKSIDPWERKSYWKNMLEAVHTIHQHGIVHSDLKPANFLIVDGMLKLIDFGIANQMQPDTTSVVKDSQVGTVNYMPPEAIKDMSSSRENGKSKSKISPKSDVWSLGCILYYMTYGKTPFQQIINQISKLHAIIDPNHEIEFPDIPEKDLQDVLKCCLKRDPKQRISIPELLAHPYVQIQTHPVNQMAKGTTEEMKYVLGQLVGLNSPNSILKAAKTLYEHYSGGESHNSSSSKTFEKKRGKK

Experiment [7] addresses Dual specificity testis-specific protein kinase 2 (Homo sapiens, UniProt Q96S53).
Experiment [8] addresses DNA topoisomerase 2-alpha (Homo sapiens, UniProt P11388).
The target in experiment [9] is PAS domain-containing serine/threonine-protein kinase (Homo sapiens, UniProt Q96RG2).
Sequence of PAS domain-containing serine/threonine-protein kinase (Q96RG2 whole entry, the tested form may be a part): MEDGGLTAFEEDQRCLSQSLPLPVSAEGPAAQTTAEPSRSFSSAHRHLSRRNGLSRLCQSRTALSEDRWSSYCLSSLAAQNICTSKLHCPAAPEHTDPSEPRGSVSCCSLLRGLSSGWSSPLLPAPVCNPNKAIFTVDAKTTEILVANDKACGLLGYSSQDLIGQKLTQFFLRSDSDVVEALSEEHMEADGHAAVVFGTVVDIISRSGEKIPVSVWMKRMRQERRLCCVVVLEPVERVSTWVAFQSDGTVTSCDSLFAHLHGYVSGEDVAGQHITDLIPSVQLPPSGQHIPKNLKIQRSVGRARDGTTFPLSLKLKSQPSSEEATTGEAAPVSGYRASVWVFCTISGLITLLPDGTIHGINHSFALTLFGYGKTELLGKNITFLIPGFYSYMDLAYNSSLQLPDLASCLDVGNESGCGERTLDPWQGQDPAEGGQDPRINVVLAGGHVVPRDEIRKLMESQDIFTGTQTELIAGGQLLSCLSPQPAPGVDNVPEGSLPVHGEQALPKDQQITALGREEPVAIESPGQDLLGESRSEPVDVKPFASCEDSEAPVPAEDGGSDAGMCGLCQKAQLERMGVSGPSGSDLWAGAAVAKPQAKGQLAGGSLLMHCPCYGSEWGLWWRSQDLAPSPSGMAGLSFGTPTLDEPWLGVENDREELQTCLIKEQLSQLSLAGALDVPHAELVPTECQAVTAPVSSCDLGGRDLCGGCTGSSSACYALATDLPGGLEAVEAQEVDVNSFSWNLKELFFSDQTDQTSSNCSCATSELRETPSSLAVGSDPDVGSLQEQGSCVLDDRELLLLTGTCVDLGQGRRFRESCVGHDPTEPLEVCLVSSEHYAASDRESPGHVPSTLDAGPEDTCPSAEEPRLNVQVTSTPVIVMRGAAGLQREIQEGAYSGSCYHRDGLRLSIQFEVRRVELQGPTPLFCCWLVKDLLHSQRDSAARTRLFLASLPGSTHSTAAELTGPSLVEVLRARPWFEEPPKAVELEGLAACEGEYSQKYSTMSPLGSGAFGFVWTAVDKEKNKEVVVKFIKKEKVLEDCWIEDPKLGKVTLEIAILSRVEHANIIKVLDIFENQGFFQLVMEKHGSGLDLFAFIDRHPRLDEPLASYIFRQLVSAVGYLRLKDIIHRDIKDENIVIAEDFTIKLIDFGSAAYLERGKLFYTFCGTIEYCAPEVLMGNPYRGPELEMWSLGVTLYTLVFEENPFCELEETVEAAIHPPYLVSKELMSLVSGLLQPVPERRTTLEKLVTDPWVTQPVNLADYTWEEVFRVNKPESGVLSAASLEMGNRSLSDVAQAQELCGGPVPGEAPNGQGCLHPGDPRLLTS
The target of experiment [10] is Choline-phosphate cytidylyltransferase A (Homo sapiens, UniProt P49585).
Sequence of Choline-phosphate cytidylyltransferase A (P49585 whole entry): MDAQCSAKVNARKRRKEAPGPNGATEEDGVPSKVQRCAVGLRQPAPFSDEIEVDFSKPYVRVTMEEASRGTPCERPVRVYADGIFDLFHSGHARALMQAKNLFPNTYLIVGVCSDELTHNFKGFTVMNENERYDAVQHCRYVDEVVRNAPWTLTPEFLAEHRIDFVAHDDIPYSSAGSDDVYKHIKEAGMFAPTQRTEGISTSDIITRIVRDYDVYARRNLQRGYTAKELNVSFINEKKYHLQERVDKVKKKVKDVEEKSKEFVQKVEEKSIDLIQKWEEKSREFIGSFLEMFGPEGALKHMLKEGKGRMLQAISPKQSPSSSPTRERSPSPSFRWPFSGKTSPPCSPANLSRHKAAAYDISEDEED
Experiment [11] deals with Proto-oncogene tyrosine-protein kinase receptor Ret (Homo sapiens, UniProt P07949).
Sequence of Proto-oncogene tyrosine-protein kinase receptor Ret (P07949 whole entry): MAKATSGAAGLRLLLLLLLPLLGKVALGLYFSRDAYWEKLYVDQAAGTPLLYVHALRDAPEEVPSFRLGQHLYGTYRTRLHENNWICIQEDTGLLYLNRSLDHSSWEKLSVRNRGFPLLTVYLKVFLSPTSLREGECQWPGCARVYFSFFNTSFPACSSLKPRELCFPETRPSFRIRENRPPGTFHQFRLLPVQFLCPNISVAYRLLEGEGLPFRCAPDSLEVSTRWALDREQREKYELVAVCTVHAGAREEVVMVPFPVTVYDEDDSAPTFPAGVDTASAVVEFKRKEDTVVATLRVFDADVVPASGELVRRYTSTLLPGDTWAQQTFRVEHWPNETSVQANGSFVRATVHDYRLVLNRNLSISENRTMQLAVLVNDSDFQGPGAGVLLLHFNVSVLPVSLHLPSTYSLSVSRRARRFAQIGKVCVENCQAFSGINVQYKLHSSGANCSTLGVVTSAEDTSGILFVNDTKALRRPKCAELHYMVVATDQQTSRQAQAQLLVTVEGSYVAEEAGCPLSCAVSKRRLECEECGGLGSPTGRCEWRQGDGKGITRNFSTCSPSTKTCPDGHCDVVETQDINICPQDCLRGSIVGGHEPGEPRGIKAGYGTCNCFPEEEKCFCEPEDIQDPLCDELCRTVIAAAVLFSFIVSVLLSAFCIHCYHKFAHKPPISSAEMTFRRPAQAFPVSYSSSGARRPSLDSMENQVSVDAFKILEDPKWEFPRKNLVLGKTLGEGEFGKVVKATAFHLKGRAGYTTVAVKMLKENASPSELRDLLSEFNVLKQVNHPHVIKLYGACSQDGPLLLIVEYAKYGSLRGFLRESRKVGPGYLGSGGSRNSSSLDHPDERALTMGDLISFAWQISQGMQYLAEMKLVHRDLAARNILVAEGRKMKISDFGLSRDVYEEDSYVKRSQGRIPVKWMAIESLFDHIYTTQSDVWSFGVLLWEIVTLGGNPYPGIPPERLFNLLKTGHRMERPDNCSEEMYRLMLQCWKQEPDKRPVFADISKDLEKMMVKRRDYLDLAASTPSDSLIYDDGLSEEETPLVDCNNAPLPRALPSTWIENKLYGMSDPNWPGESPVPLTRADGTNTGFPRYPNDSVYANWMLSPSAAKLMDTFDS
The target of experiment [12] is G protein-coupled receptor kinase 6 (Homo sapiens, UniProt P43250).
For experiment [13], the target named is Dual specificity testis-specific protein kinase 1 (Homo sapiens, UniProt Q15569).
The target of experiment [14] is Hepatocyte growth factor receptor (Homo sapiens, UniProt P08581).
In experiment [15] the target is Uncharacterized aarF domain-containing protein kinase 5 (Homo sapiens, UniProt Q3MIX3).
Note: in the data inactive means no Kd found up to 30 µM.

Sequence of Serine/threonine-protein kinase 24 (Q9Y6E0 whole entry): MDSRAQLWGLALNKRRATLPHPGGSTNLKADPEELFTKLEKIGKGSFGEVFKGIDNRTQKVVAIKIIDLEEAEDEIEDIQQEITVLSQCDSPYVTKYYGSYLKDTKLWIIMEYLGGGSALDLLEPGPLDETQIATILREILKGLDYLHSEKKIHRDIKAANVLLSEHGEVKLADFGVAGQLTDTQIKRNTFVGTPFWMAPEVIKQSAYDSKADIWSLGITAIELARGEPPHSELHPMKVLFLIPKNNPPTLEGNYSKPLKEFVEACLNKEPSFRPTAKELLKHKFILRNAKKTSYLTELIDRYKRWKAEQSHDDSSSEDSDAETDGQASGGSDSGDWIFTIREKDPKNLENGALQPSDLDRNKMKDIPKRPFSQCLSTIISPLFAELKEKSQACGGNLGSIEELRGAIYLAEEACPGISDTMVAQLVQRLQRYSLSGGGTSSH
Sequence of DNA topoisomerase 2-alpha (P11388 whole entry, the tested form may be a part): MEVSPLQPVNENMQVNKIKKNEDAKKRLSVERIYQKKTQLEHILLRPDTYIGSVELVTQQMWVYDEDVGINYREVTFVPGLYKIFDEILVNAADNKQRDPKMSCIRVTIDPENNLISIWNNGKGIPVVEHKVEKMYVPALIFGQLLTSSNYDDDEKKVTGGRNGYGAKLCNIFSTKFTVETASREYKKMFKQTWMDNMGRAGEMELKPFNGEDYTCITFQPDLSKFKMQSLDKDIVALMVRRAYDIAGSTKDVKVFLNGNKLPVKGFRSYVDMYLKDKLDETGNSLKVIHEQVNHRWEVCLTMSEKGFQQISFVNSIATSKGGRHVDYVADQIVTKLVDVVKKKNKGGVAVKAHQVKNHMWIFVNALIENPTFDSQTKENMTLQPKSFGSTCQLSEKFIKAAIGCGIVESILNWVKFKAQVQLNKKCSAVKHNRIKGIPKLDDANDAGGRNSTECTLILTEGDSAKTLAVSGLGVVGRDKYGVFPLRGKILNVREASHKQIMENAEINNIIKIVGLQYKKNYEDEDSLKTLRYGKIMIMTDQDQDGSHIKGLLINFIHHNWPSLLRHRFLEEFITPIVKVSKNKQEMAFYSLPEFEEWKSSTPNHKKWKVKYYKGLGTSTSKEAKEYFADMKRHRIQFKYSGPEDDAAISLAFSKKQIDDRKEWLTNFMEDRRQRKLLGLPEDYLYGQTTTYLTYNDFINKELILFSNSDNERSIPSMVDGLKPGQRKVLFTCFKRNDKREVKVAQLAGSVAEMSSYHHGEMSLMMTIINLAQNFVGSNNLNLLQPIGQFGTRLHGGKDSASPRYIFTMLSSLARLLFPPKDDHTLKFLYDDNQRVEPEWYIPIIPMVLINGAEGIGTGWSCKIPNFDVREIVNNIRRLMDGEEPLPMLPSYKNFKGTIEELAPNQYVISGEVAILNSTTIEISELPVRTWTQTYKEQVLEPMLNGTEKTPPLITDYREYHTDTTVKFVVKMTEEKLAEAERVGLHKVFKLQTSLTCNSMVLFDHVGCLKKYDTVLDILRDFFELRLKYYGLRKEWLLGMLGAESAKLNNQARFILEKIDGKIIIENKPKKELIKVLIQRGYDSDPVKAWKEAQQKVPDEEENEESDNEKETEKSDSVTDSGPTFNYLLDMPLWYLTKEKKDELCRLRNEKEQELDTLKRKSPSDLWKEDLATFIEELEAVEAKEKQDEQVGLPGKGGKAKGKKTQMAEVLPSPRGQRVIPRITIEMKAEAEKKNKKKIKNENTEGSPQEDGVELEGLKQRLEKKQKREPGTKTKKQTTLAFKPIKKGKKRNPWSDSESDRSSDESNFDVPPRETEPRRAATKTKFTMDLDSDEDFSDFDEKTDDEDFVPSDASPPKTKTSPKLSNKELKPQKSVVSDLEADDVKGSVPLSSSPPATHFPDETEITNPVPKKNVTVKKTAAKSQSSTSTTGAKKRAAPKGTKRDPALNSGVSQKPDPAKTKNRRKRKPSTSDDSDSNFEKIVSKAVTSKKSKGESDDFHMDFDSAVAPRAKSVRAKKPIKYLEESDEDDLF
Sequence of Serine/threonine-protein kinase Nek7 (Q8TDX7 whole entry): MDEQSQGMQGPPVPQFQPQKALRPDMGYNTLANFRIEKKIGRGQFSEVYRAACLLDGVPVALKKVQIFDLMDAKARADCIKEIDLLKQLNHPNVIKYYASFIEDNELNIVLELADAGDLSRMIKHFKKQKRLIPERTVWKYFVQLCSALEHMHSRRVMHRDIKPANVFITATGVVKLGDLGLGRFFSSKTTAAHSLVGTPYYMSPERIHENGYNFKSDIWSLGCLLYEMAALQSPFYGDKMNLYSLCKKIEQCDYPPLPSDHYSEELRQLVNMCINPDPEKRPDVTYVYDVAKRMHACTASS

As to `COc1cc2nccc(Oc3ccc(NC(=O)C4(C(=O)Nc5ccc(F)cc5)CC4)cc3)c2cc1OC` [CABOZANTINIB], the Kd (in experiment [1]; in experiment [2]; at Myosin-10; in [3]; in [4]; in [5]) was > 30 µM (inactive) in each case. Also, in experiment [6], the Kd – broadly, the constant that tells how readily two partners part at equilibrium – is > 30 µM (inactive).

As for `Cn1cnc2c(F)c(Nc3ccc(Br)cc3Cl)c(C(=O)NOCCO)cc21` [SELUMETINIB], the Kd (in [7]; in [8]; in experiment [9]; at Myosin-10; in experiment [10]) was > 30 µM (inactive) throughout.

`Cn1cc(-c2[nH]c3cc(NC(=O)[C@H](N)C4CCCCC4)cc4c3c2C=NNC4=O)cn1`: the Kd is > 30 µM (inactive) in experiment [1]; > 30 µM (inactive) in [7]; > 30 µM (inactive) in experiment [8]; > 30 µM (inactive) in [9]; 0.01 µM (active) in [11]; > 30 µM (inactive) in [12]. The Kd in experiment [2] was > 30 µM (inactive); in experiment [13] it was > 30 µM (inactive); in experiment [14], > 30 µM (inactive); on Myosin-10, > 30 µM (inactive); in experiment [15] it was > 30 µM (inactive); in experiment [3], 0.019 µM. The Kd in experiment [4], in [5] and in experiment [6] was > 30 µM (inactive) throughout.

As to `C[C@@H]1COC(Nc2ccc3ncnc(Nc4ccc(OCc5nccs5)c(Cl)c4)c3c2)=N1` [VARLITINIB], the Kd in [1], in experiment [7], in [8], in experiment [9], in experiment [11] and in [12] was > 30 µM (inactive) throughout. Further, the Kd in [2], in [13], in experiment [14], in experiment [3], in [4] and in experiment [5] was > 30 µM (inactive) each time. In addition, the Kd in experiment [6] was > 30 µM (inactive).

For the compound `CC1(COc2ccc3c(c2)ncn3-c2ccc3cccc(N4CCC(N)CC4)c3n2)COC1` [CRENOLANIB], the Kd in [7] is > 30 µM (inactive); in experiment [8], > 30 µM (inactive); in experiment [9], > 30 µM (inactive); in [11] it was 0.81 µM (active); in experiment [12], > 30 µM (inactive); in experiment [2], > 30 µM (inactive). For the same compound, the Kd (in experiment [13]; in [14]; on Myosin-10; in experiment [15]; in experiment [3]; in [4]) was > 30 µM (inactive) throughout. Further, the Kd in experiment [5] is 0.057 µM (active).

Consider `CN(C)C/C=C/C(=O)Nc1cc2c(Nc3ccc(F)c(Cl)c3)ncnc2cc1O[C@H]1CCOC1` [AFATINIB], for which the Kd (in experiment [8]; in [9]; on Myosin-10; in experiment [15]; in experiment [4]; in experiment [10]) was > 30 µM (inactive) in each case.

For the compound `NC(=O)c1ccc(N(C(N)=O)c2c(F)cccc2F)nc1-c1ccc(F)cc1F` [VX-702], the Kd in experiment [1], in [7], in experiment [8], in [9], in experiment [11] and in experiment [2] was > 30 µM (inactive) in each case. In addition, the Kd in experiment [13], in [14], in experiment [3], in [4] and in experiment [5] was > 30 µM (inactive) in each case.

`COc1cc2ncnc(Nc3ccc(O)cc3)c2cc1OC` [WHI-P131]: the Kd in experiment [1] was > 30 µM (inactive); in [7] it was > 30 µM (inactive); in experiment [8], > 30 µM (inactive); in experiment [9], > 30 µM (inactive); in experiment [11], 21.9 µM (active); in experiment [2] it was > 30 µM (inactive). Moreover, the Kd (in [13]; in experiment [14]; at Myosin-10; in experiment [3]; in [4]; in experiment [5]) was > 30 µM (inactive) each time. In addition, the Kd in experiment [6] is > 30 µM (inactive).

`COc1cc(F)c(F)c(Nc2ccc(I)cc2F)c1NS(=O)(=O)C1(C[C@H](O)CO)CC1` [REFAMETINIB]: the Kd in experiment [1], in experiment [9], in experiment [11], in [12], in [2] and in experiment [13] was > 30 µM (inactive) throughout. The Kd in [14], in experiment [3] and in experiment [4] was > 30 µM (inactive) each time.

As to `NC[C@@](O)(c1ccc(Cl)cc1)c1ccc(-c2cn[nH]c2)cc1` [AT-13148], the Kd (in experiment [8]; in experiment [11]; in [14]; on Myosin-10; in [10]) was > 30 µM (inactive) throughout.

Consider `O[C@H]1CC[C@H](Nc2ncc3nc(Nc4c(F)cc(F)cc4F)n([C@H]4CCOC4)c3n2)CC1` [TANZISERTIB], for which the Kd in experiment [1], in experiment [8], in [9], in experiment [2], in experiment [13] and in experiment [14] was > 30 µM (inactive) each time. Further, the Kd in [15], in experiment [3], in experiment [4], in experiment [5] and in [6] was > 30 µM (inactive) each time.
